# Measurements: patent publication US20170319661A1, “Methods and Pharmaceutical Compositions Using Orexins (OXA, OXB) for the Treatment of Prostate Cancers” (INSERM (Institut National de la Sante et de la Recherche …, priority 2014, published 2017)
# Entries after “also recorded” stand apart in the source; their conditions may differ.
# How the values were obtained:
# Assay type in all cases: cell-based, human
# [1] = tested on: DU145 cells; assay: Apo-ONE Homogeneous Caspase-3/7 apoptosis assay in DU145 cells (native or neuroendocrine-differentiated); conditions: 10^-6 M, 3 days
# Source text: (§1) Two human-derived CaP cell lines were used, i.e. the androgen-responsive cell line LNCaP, and the androgen-unresponsive cell line DU145 as well as the colorectal adenocarcinoma HT-29 cell line. The three cell lines were purchased from American Type Culture Collection (ATCC, Rockville, Md.). The LNCaP cells were maintained in RPMI 1640 medium supplemented with 10% fetal bovine serum (FBS), 1% penicillin/streptomycin and 1% glutamine (complete medium). The DU145 cells were maintained in Dulbecco modified Eagle's minimal essential medium (DMEM) supplemented with 10% FBS and 1% penicillin/streptomycin (complete medium). The HT-29 cells were maintained in DMEM supplemented with 10% FBS, 1% penicillin/streptomycin and 1% glutamine. […]
# (§2) Cell viability was determined by using the CellTiter-Blue® assay (Promega, Charbonnières, France). Cell apoptosis was quantified by evaluating the enzymatic activities of Caspase 3/7 by using the Apo-ONE® Homogeneous Caspase-3/7 Assay (promega). Briefly, the enzymes were measured in intact and differentiated DU145 culture cells after a 3-days incubation with OxA or OxB (10^-6M) in 96-well plates. The cells were incubated with fluorogenic peptide specific to caspase 3 and 7 enzymes, and detection of fluorescent product over time was monitored in a spectrofluorometer Flex Station 3 (Molecular Devices, St. Grégoire, France) at 485 nm excitation and 527 nm emission. […]
# [2] = tested on: HT-29 cells; assay: Apo-ONE Homogeneous Caspase-3/7 apoptosis assay in HT-29 cells (positive control); conditions: 10^-6 M
# [3] = tested on: DU145 cells; assay: CellTiter-Blue cell viability / growth of DU145 cells; conditions: native DU145 cells, 10^-6 M, 3 days
# Source text: as §1, §2
# [4] = tested on: HT-29 cells; assay: Cell viability / growth of HT-29 cells
# Source text: as §1, §2
substance,measurement,setting,value
Orexin-B [OxB],apoptosis (Caspase 3/7 activity),[1]; DU145 cells submitted to neuroendocrine differentiation (db-cAMP 1 mM/IBMX 0.1 mM),promote cell death
same,apoptosis (Caspase 3/7 activity),[1]; native DU145 cells,did not alter apoptosis; also recorded: has no effect on the apoptosis rate
same,apoptosis (Caspase 3/7 activity),[2],promoted significantly the apoptosis
same,cell growth,[3],increased cell growth
same,cell growth,[4],inhibited cell growth
